Numbers after ± are expanded uncertainties. Values belong to the compound of their own block, whether it stands above or below them.
Columns and labels:
[1] = surface light scattering
[2] = xn = mol fraction of the nth substance listed; details: surface light scattering

Structure (SMILES): CC(C)CC(C)(C)C [2,2,4-trimethylpentane]
surface tension liquid-gas ([1]; 288.15 K): 19.14 ± 0.19 mN/m
surface tension liquid-gas ([1]; 298.15 K): 18.3 ± 0.18 mN/m
surface tension liquid-gas ([1]; 303.15 K): 17.9 ± 0.18 mN/m
surface tension liquid-gas ([1]; 308.15 K): 17.43 ± 0.18 mN/m
surface tension liquid-gas ([1]; 313.15 K): 17.09 ± 0.17 mN/m
surface tension liquid-gas ([1]; 318.15 K): 16.56 ± 0.17 mN/m
surface tension liquid-gas ([1]; 323.15 K): 16.2 ± 0.2 mN/m

Structure (SMILES): CCO [ethanol]
surface tension liquid-gas ([1]; 288.15 K): 22.72 ± 0.23 mN/m
surface tension liquid-gas ([1]; 293.15 K): 22.31 ± 0.23 mN/m
surface tension liquid-gas ([1]; 298.15 K): 21.85 ± 0.23 mN/m
surface tension liquid-gas ([1]; 303.15 K): 21.41 ± 0.22 mN/m
surface tension liquid-gas ([1]; 308.15 K): 21.04 ± 0.22 mN/m
surface tension liquid-gas ([1]; 313.15 K): 20.62 ± 0.21 mN/m
surface tension liquid-gas ([1]; 318.15 K): 20.29 ± 0.21 mN/m

Structure (SMILES): CCCCCCCO [heptan-1-ol]
surface tension liquid-gas ([1]; 298.15 K): 26.46 ± 0.3 mN/m
surface tension liquid-gas ([1]; 303.15 K): 25.93 ± 0.29 mN/m
surface tension liquid-gas ([1]; 308.15 K): 25.43 ± 0.28 mN/m
surface tension liquid-gas ([1]; 313.15 K): 24.95 ± 0.28 mN/m
surface tension liquid-gas ([1]; 318.15 K): 24.55 ± 0.27 mN/m
surface tension liquid-gas ([1]; 323.15 K): 24.03 ± 0.27 mN/m

Structure (SMILES): CCCCCCC [heptane]
surface tension liquid-gas ([1]; 293.15 K): 20.12 ± 0.23 mN/m
surface tension liquid-gas ([1]; 298.15 K): 19.69 ± 0.22 mN/m
surface tension liquid-gas ([1]; 303.15 K): 19.13 ± 0.21 mN/m
surface tension liquid-gas ([1]; 308.15 K): 18.67 ± 0.21 mN/m
surface tension liquid-gas ([1]; 313.15 K): 18.1 ± 0.2 mN/m
surface tension liquid-gas ([1]; 318.15 K): 17.7 ± 0.2 mN/m

Structure (SMILES): CCCCCCO [hexan-1-ol]
surface tension liquid-gas ([1]; 298.15 K): 25.56 ± 0.29 mN/m
surface tension liquid-gas ([1]; 303.15 K): 24.95 ± 0.28 mN/m
surface tension liquid-gas ([1]; 308.15 K): 24.65 ± 0.28 mN/m
surface tension liquid-gas ([1]; 313.15 K): 23.93 ± 0.27 mN/m
surface tension liquid-gas ([1]; 318.15 K): 23.58 ± 0.26 mN/m
surface tension liquid-gas ([1]; 323.15 K): 23.21 ± 0.26 mN/m

Continued, values first:

surface tension liquid-gas ([1]; 298.15 K): 25.29 ± 0.28 mN/m
surface tension liquid-gas ([1]; 303.15 K): 24.87 ± 0.28 mN/m
surface tension liquid-gas ([1]; 308.15 K): 24.46 ± 0.27 mN/m
surface tension liquid-gas ([1]; 313.15 K): 24.05 ± 0.27 mN/m
surface tension liquid-gas ([1]; 318.15 K): 23.65 ± 0.26 mN/m
surface tension liquid-gas ([1]; 323.15 K): 23.21 ± 0.26 mN/m
Structure (SMILES): CCCCCO [pentan-1-ol]

surface tension liquid-gas ([2]; 298.15 K, x2 = 0): 25.29 ± 0.28 mN/m
surface tension liquid-gas ([2]; 298.15 K, x2 = 0.1004): 23.81 ± 0.26 mN/m
surface tension liquid-gas ([2]; 298.15 K, x2 = 0.2003): 22.53 ± 0.24 mN/m
surface tension liquid-gas ([2]; 298.15 K, x2 = 0.3): 21.7 ± 0.23 mN/m
surface tension liquid-gas ([2]; 298.15 K, x2 = 0.4): 20.97 ± 0.22 mN/m
surface tension liquid-gas ([2]; 298.15 K, x2 = 0.5): 20.3 ± 0.21 mN/m
surface tension liquid-gas ([2]; 298.15 K, x2 = 0.5999): 19.77 ± 0.2 mN/m
surface tension liquid-gas ([2]; 298.15 K, x2 = 0.6998): 19.38 ± 0.2 mN/m
surface tension liquid-gas ([2]; 298.15 K, x2 = 0.7999): 18.94 ± 0.19 mN/m
surface tension liquid-gas ([2]; 298.15 K, x2 = 0.8996): 18.64 ± 0.19 mN/m
surface tension liquid-gas ([2]; 303.15 K, x2 = 0): 24.87 ± 0.28 mN/m
surface tension liquid-gas ([2]; 303.15 K, x2 = 0.1004): 23.28 ± 0.26 mN/m
surface tension liquid-gas ([2]; 303.15 K, x2 = 0.2003): 22.05 ± 0.24 mN/m
surface tension liquid-gas ([2]; 303.15 K, x2 = 0.3): 21.22 ± 0.23 mN/m
surface tension liquid-gas ([2]; 303.15 K, x2 = 0.4): 20.49 ± 0.22 mN/m
surface tension liquid-gas ([2]; 303.15 K, x2 = 0.5): 19.82 ± 0.21 mN/m
surface tension liquid-gas ([2]; 303.15 K, x2 = 0.5999): 19.3 ± 0.2 mN/m
surface tension liquid-gas ([2]; 303.15 K, x2 = 0.6998): 18.93 ± 0.19 mN/m
surface tension liquid-gas ([2]; 303.15 K, x2 = 0.7999): 18.51 ± 0.19 mN/m
surface tension liquid-gas ([2]; 303.15 K, x2 = 0.8996): 18.22 ± 0.18 mN/m
surface tension liquid-gas ([2]; 308.15 K, x2 = 0): 24.46 ± 0.27 mN/m
surface tension liquid-gas ([2]; 308.15 K, x2 = 0.1004): 22.83 ± 0.25 mN/m
surface tension liquid-gas ([2]; 308.15 K, x2 = 0.2003): 21.56 ± 0.23 mN/m
surface tension liquid-gas ([2]; 308.15 K, x2 = 0.3): 20.71 ± 0.22 mN/m
surface tension liquid-gas ([2]; 308.15 K, x2 = 0.4): 19.98 ± 0.21 mN/m
surface tension liquid-gas ([2]; 308.15 K, x2 = 0.5): 19.3 ± 0.2 mN/m
surface tension liquid-gas ([2]; 308.15 K, x2 = 0.5999): 18.79 ± 0.19 mN/m
surface tension liquid-gas ([2]; 308.15 K, x2 = 0.6998): 18.42 ± 0.19 mN/m
surface tension liquid-gas ([2]; 308.15 K, x2 = 0.7999): 18.01 ± 0.18 mN/m
surface tension liquid-gas ([2]; 308.15 K, x2 = 0.8996): 17.75 ± 0.18 mN/m
surface tension liquid-gas ([2]; 313.15 K, x2 = 0): 24.05 ± 0.27 mN/m
surface tension liquid-gas ([2]; 313.15 K, x2 = 0.1004): 22.42 ± 0.25 mN/m
surface tension liquid-gas ([2]; 313.15 K, x2 = 0.2003): 21.08 ± 0.23 mN/m
surface tension liquid-gas ([2]; 313.15 K, x2 = 0.3): 20.23 ± 0.22 mN/m
surface tension liquid-gas ([2]; 313.15 K, x2 = 0.4): 19.51 ± 0.21 mN/m
surface tension liquid-gas ([2]; 313.15 K, x2 = 0.5): 18.84 ± 0.2 mN/m
surface tension liquid-gas ([2]; 313.15 K, x2 = 0.5999): 18.34 ± 0.19 mN/m
surface tension liquid-gas ([2]; 313.15 K, x2 = 0.6998): 18 ± 0.18 mN/m
surface tension liquid-gas ([2]; 313.15 K, x2 = 0.7999): 17.61 ± 0.18 mN/m
surface tension liquid-gas ([2]; 313.15 K, x2 = 0.8996): 17.38 ± 0.18 mN/m
surface tension liquid-gas ([2]; 318.15 K, x2 = 0): 23.65 ± 0.26 mN/m
surface tension liquid-gas ([2]; 318.15 K, x2 = 0.1004): 21.99 ± 0.24 mN/m
surface tension liquid-gas ([2]; 318.15 K, x2 = 0.2003): 20.58 ± 0.22 mN/m
surface tension liquid-gas ([2]; 318.15 K, x2 = 0.3): 19.71 ± 0.21 mN/m
surface tension liquid-gas ([2]; 318.15 K, x2 = 0.4): 18.97 ± 0.2 mN/m
surface tension liquid-gas ([2]; 318.15 K, x2 = 0.5): 18.3 ± 0.19 mN/m
surface tension liquid-gas ([2]; 318.15 K, x2 = 0.5999): 17.79 ± 0.18 mN/m
surface tension liquid-gas ([2]; 318.15 K, x2 = 0.6998): 17.45 ± 0.18 mN/m
surface tension liquid-gas ([2]; 318.15 K, x2 = 0.7999): 17.07 ± 0.17 mN/m
surface tension liquid-gas ([2]; 318.15 K, x2 = 0.8996): 16.85 ± 0.17 mN/m
surface tension liquid-gas ([2]; 323.15 K, x2 = 0): 23.21 ± 0.26 mN/m
surface tension liquid-gas ([2]; 323.15 K, x2 = 0.1004): 21.5 ± 0.24 mN/m
surface tension liquid-gas ([2]; 323.15 K, x2 = 0.2003): 20.14 ± 0.22 mN/m
surface tension liquid-gas ([2]; 323.15 K, x2 = 0.3): 19.26 ± 0.21 mN/m
surface tension liquid-gas ([2]; 323.15 K, x2 = 0.4): 18.51 ± 0.2 mN/m
surface tension liquid-gas ([2]; 323.15 K, x2 = 0.5): 17.83 ± 0.19 mN/m
surface tension liquid-gas ([2]; 323.15 K, x2 = 0.5999): 17.34 ± 0.18 mN/m
surface tension liquid-gas ([2]; 323.15 K, x2 = 0.6998): 17.02 ± 0.17 mN/m
surface tension liquid-gas ([2]; 323.15 K, x2 = 0.7999): 16.65 ± 0.17 mN/m
surface tension liquid-gas ([2]; 323.15 K, x2 = 0.8996): 16.43 ± 0.17 mN/m
Structure (SMILES): CCCCCO [pentan-1-ol] + CC(C)CC(C)(C)C

surface tension liquid-gas ([1]; 298.15 K): 23.31 ± 0.24 mN/m
surface tension liquid-gas ([1]; 303.15 K): 22.9 ± 0.24 mN/m
surface tension liquid-gas ([1]; 308.15 K): 22.52 ± 0.23 mN/m
surface tension liquid-gas ([1]; 313.15 K): 22.1 ± 0.23 mN/m
surface tension liquid-gas ([1]; 318.15 K): 21.68 ± 0.22 mN/m
surface tension liquid-gas ([1]; 323.15 K): 21.27 ± 0.22 mN/m
Structure (SMILES): CCCO [propan-1-ol]

surface tension liquid-gas ([2]; 298.15 K, x2 = 0): 23.31 ± 0.24 mN/m
surface tension liquid-gas ([2]; 303.15 K, x2 = 0): 22.9 ± 0.24 mN/m
surface tension liquid-gas ([2]; 308.15 K, x2 = 0): 22.52 ± 0.23 mN/m
surface tension liquid-gas ([2]; 313.15 K, x2 = 0): 22.1 ± 0.23 mN/m
surface tension liquid-gas ([2]; 318.15 K, x2 = 0): 21.68 ± 0.22 mN/m
surface tension liquid-gas ([2]; 323.15 K, x2 = 0): 21.27 ± 0.22 mN/m
Structure (SMILES): CCCO [propan-1-ol] + CC(C)CC(C)(C)C

From the NIST ThermoML archive (doi:10.1021/acs.jced.5b00903)
